Experimental data published in patent US20220251052A1, “IMPROVED PROCESS FOR THE PREPARATION OF 2-(3,5-DICHLOROPHENYL)-1,3-BENZOXAZOLE-6-CARBOXYLIC ACID OR ITS PHARMACEUTICALLY ACCEPTABLE SALTS AND POLYMORPHS THEREOF” (MSN LABORATORIES PRIVATE LIMITED, R&D CENTER, priority 2019, published 2022).

Assay: Solid-state stability of the crystalline form under stress conditions
Assay type: physicochemical
Conditions: 60±5° C. for 24 hours; 10 tons of pressure; UV light at 254nm for 24 hours; 75±5% relative humidity for 24 hours
Description: In third aspect of third embodiment, crystalline Form-R of Tafamidis of formula (I) is stable under stress conditions at 60±5° C. for 24 hours, 10 tons of pressure, under UV light at 254nm for 24 hours and higher humidity conditions of 75±5% relative humidity for 24 hours.

polymorphic stability under stress conditions (does not convert to any other polymorphic form): stable
SMILES: O=C(O)c1ccc2nc(-c3cc(Cl)cc(Cl)c3)oc2c1 [Form-R, 2-(3,5-dichlorophenyl)-1,3-benzoxazole-6-carboxylic acid]
